The text below walks through data of ChEMBL document CHEMBL1146583, “Acetylenic acids inhibiting azole-resistant Candida albicans from Pentagonia gigantifolia” (J Nat Prod, 2003).

SMILES strings stand for the structures. Values after ≈ are worked out from the molar mass of the structure shown. Active and inactive are the calls of the source. The rule behind the calls is not given here.

The test system of data set [1] is Candida albicans. The experiment in a line: Antifungal activity against Candida albicans ATCC 90028 after 24 to 48 hrs by NCCLS method. It is filed as functional, organism-based.
Data set [2] has as its system Candida albicans. The data set can be described thus: Antifungal activity against Candida albicans ATCC 90028 by sphingolipid reversal assay in presence of 30 ug/mL stearylamine. It is filed as functional, organism-based.
Data set [3] deals with Candida albicans. The experiment in a line: Antifungal activity against Candida albicans ATCC 90028 by sphingolipid reversal assay in presence of 15 ug/mL stearylamine. The class given is functional, organism-based.
Data set [4] has as its system Candida albicans. The data set can be described thus: Antifungal activity against Candida albicans ATCC 90028 by sphingolipid reversal assay in presence of 2.5 ug/mL dihydrosphingosine. It is filed as functional, organism-based.
Data set [5] concerns Candida albicans. The experiment in a line: Antifungal activity against Candida albicans ATCC 90028 by sphingolipid reversal assay in presence of 5 ug/mL stearylamine. The class given is functional, organism-based.
In another data set the test system is SK-OV-3. The data set can be described thus: Cytotoxicity against human SKOV3 cells at 10 ug/mL. It is filed as functional, cell-based.
Data set [6] concerns Candida albicans. The experiment in a line: Antifungal activity against fluconazole-susceptible Candida albicans isolate 1 after 24 to 48 hrs by NCCLS method. The class given is functional, organism-based. The following applies: for IC50 / IC80: Candida albicans.
A further data set relates to BT-549. The experiment in a line: Cytotoxicity against human BT549 cells at 10 ug/mL. The class given is functional, cell-based.
Data set [7] relates to Candida albicans. The data set can be described thus: Antifungal activity against fluconazole-resistant Candida albicans isolate 8 after 24 to 48 hrs by NCCLS method. It is filed as functional, organism-based. Conditions: for IC50 / IC80: Candida albicans.
The next data set has as its system SK-MEL. The data set can be described thus: Cytotoxicity against human SK-MEL cells at 10 ug/mL. It is filed as functional, cell-based.
Another data set concerns Vero. The experiment in a line: Cytotoxicity against african green monkey Vero cells at 10 ug/mL. It is filed as cell-based. Conditions: chlorocebus sabaeus.
In data set [8] the test system is Candida albicans. The data set can be described thus: Antifungal activity against fluconazole-resistant Candida albicans isolate 5 after 24 to 48 hrs by NCCLS method. It is filed as functional, organism-based. Conditions: for IC50 / IC80: Candida albicans.
The subject of a further data set is KB. The data set can be described thus: Cytotoxicity against human KB cells at 10 ug/mL. The class given is functional, cell-based.
In data set [9] the test system is Candida albicans. The data set can be described thus: Antifungal activity against fluconazole-resistant Candida albicans isolate 2 after 24 to 48 hrs by NCCLS method. The class given is functional, organism-based. Conditions: for IC50 / IC80: Candida albicans.
Data set [10] deals with Candida albicans. The data set can be described thus: Antifungal activity against Candida albicans ATCC 90028 by sphingolipid reversal assay in presence of 5.0 ug/mL dihydrosphingosine. The class given is functional, organism-based.
The test system of data set [11] is Candida albicans. The experiment in a line: Antifungal activity against Candida albicans ATCC 90028 by sphingolipid reversal assay in presence of 1.25 ug/mL dihydrosphingosine. It is filed as functional, organism-based.
Data set [12] relates to Candida albicans. The experiment in a line: Antifungal activity against fluconazole-resistant Candida albicans isolate 17 after 24 to 48 hrs by NCCLS method. The class given is functional, organism-based. The following applies: for IC50 / IC80: Candida albicans.
The test system of data set [13] is Candida albicans. The data set can be described thus: Antifungal activity against fluconazole-resistant Candida albicans isolate 17 at 100 ug/mL after 24 to 48 hrs by NCCLS method. It is filed as functional, organism-based.

As a reminder, the IC50 is the midpoint of a concentration-inhibition curve. Usually MIC stands for the least concentration at which growth counts as inhibited. In the case of `C[C@@H]1[C@H](O)[C@@H](C)/C=C/C=C/C=C/C=C/C=C/C=C/C=C/[C@H](O[C@@H]2O[C@H](C)[C@@H](O)[C@H](N)[C@@H]2O)C[C@@H]2O[C@](O)(C[C@@H](O)C[C@@H](O)[C@H](O)CC[C@@H](O)C[C@@H](O)CC(=O)O[C@H]1C)C[C@H](O)[C@H]2C(=O)O` [AMPHOTERICIN B], the IC50 in the data set with Candida albicans [1] turned out to be 0.23 µg/mL (≈ 0.249 µM); with Candida albicans [2], 0.65 µg/mL; with Candida albicans [3], 0.4 µg/mL. In the data set with Candida albicans [1], the lowest concentration to inhibit growth (MIC) was 0.52 µg/mL (≈ 0.563 µM).
The term IC80 denotes the point of the concentration-response curve where the effect stands at 80%. Consider `CCCCCCCCCCCCC#CCCCCC(=O)O` [6-NONADECYNOIC ACID], for which the IC50 in the data set on Candida albicans [4] was found to be 2 µg/mL; with Candida albicans [1], 0.33 µg/mL (≈ 1.12 µM); in the data set with Candida albicans [5], 5 µg/mL; in the data set on Candida albicans [6], 0.25 µg/mL (≈ 0.849 µM); with Candida albicans [7], 0.5 µg/mL (≈ 1.7 µM); in the data set with Candida albicans [8], 0.45 µg/mL (≈ 1.53 µM). The IC50 in the data set on Candida albicans [2] was determined as 35 µg/mL; in the data set with Candida albicans [9] it was 0.25 µg/mL (≈ 0.849 µM); in the data set with Candida albicans [10], 4.5 µg/mL; in the data set with Candida albicans [11], 1 µg/mL; with Candida albicans [3], 15 µg/mL; with Candida albicans [12] it was 0.45 µg/mL (≈ 1.53 µM). In the data set on Candida albicans [1], the MIC is 0.52 µg/mL (≈ 1.77 µM). Further, the result in the data set with SK-OV-3, in the data set on BT-549, in the data set on SK-MEL and in the data set on KB was inactive. Moreover, the Fungicidal in the data set with Candida albicans [6] amounted to 0.45 µg/mL; in the data set with Candida albicans [7], 0.8 µg/mL; with Candida albicans [8] it was 0.8 µg/mL; with Candida albicans [9], 0.35 µg/mL; with Candida albicans [12], 0.7 µg/mL. Moreover, the IC80 in the data set with Candida albicans [6] is 0.35 µg/mL (≈ 1.19 µM); with Candida albicans [7], 0.65 µg/mL (≈ 2.21 µM); with Candida albicans [8], 0.6 µg/mL (≈ 2.04 µM); in the data set on Candida albicans [9], 0.3 µg/mL (≈ 1.02 µM); in the data set with Candida albicans [12], 0.6 µg/mL (≈ 2.04 µM). The Activity result in the data set on Vero is “Not Active”.
Consider `CCCCCCCCCCCC#CCCCCC(=O)OC`, for which the result with Candida albicans [1] was inactive.
For the compound `OC(Cn1cncn1)(Cn1cncn1)c1ccc(F)cc1F` [FLUCONAZOLE], the outcome with Candida albicans [13] was inactive. Moreover, the IC50 stood at 0.5 µg/mL with Candida albicans [4]; 0.65 µg/mL in the data set with Candida albicans [5]; 15 µg/mL (≈ 49 µM) in the data set on Candida albicans [7]; 7.5 µg/mL (≈ 24.5 µM) with Candida albicans [8]; 0.75 µg/mL with Candida albicans [2]; 1 µg/mL (≈ 3.27 µM) in the data set with Candida albicans [9]. For the same compound, the IC50 in the data set on Candida albicans [10] was 0.7 µg/mL; in the data set on Candida albicans [11], 0.3 µg/mL; in the data set with Candida albicans [3], 0.8 µg/mL; in the data set with Candida albicans [12], 40 µg/mL (≈ 131 µM). In addition, the MIC in the data set on Candida albicans [1] is 0.29 µg/mL (≈ 0.947 µM). Besides, the Fungicidal with Candida albicans [6] was found to be 2 µg/mL; in the data set with Candida albicans [7], 25 µg/mL; in the data set on Candida albicans [8], 10 µg/mL; in the data set with Candida albicans [9], 10 µg/mL. Moreover, the IC80 in the data set with Candida albicans [6] stood at 0.2 µg/mL (≈ 0.653 µM); in the data set with Candida albicans [7], 20 µg/mL (≈ 65.3 µM); in the data set with Candida albicans [8], 10 µg/mL (≈ 32.7 µM); in the data set on Candida albicans [9], 5 µg/mL (≈ 16.3 µM); with Candida albicans [12] it was 95 µg/mL (≈ 310 µM).
As to `CCCCCCCCCCCC#CCCCCC(=O)O` [6-OCTADECYNOIC ACID], the IC50 in the data set on Candida albicans [4] amounted to 2 µg/mL; in the data set on Candida albicans [1], 0.38 µg/mL (≈ 1.35 µM); with Candida albicans [5] it was 3.5 µg/mL; in the data set with Candida albicans [6] it was 0.45 µg/mL (≈ 1.6 µM); in the data set on Candida albicans [7], 0.9 µg/mL (≈ 3.21 µM); in the data set on Candida albicans [8] it was 0.7 µg/mL (≈ 2.5 µM). Besides, the IC50 with Candida albicans [2] amounted to 30 µg/mL; with Candida albicans [9], 0.5 µg/mL (≈ 1.78 µM); in the data set on Candida albicans [10], 4.5 µg/mL; in the data set on Candida albicans [11] it was 0.7 µg/mL; with Candida albicans [3] it was 15 µg/mL; in the data set with Candida albicans [12], 0.65 µg/mL (≈ 2.32 µM). Further, in the data set on Candida albicans [1], the MIC stood at 1.04 µg/mL (≈ 3.71 µM). In addition, the outcome in the data set with SK-OV-3, in the data set with BT-549, in the data set with SK-MEL and in the data set with KB was inactive. For the same compound, the Fungicidal in the data set with Candida albicans [6] amounted to 0.7 µg/mL; in the data set with Candida albicans [7], 1.5 µg/mL; in the data set on Candida albicans [8] it was 2 µg/mL; in the data set with Candida albicans [9] it was 0.75 µg/mL; in the data set with Candida albicans [12] it was 1.5 µg/mL. The IC80 in the data set on Candida albicans [6] stood at 0.6 µg/mL (≈ 2.14 µM); in the data set with Candida albicans [7], 1 µg/mL (≈ 3.57 µM); in the data set on Candida albicans [8], 1 µg/mL (≈ 3.57 µM); in the data set with Candida albicans [9] it was 0.65 µg/mL (≈ 2.32 µM); with Candida albicans [12], 1 µg/mL (≈ 3.57 µM). The Activity entry in the data set on Vero was “Not Active”.
With `Nc1nc(=O)[nH]cc1F` [FLUCYTOSINE], the IC50 turned out to be 0.15 µg/mL in the data set on Candida albicans [4]; 0.47 µg/mL (≈ 3.64 µM) with Candida albicans [1]; 0.25 µg/mL with Candida albicans [5]; 0.25 µg/mL with Candida albicans [2]; 0.1 µg/mL in the data set on Candida albicans [10]; 0.2 µg/mL in the data set on Candida albicans [11]. In addition, the IC50 in the data set with Candida albicans [3] is 0.2 µg/mL. The compound further gave an MIC with Candida albicans [1] of 1.04 µg/mL (≈ 8.06 µM).
As to `CCCCCCCCCCCCC#CCCCCC(=O)OC`, the result in the data set on Candida albicans [1] was inactive.
